Measurements as given in paper PMC4297516 (Bioorganic & medicinal chemistry letters, 2014).

How the values were obtained:
[1] = target: human D2 receptors expressed in stably transfected HEK 293 cells (Homo sapiens, UniProt P14416); experiment: forskolin-dependent whole cell adenylyl cyclase inhibition assay, D2; assay type: cell-based; details: HEK293, read-out: Intrinsic activity hD2 HEK
[2] = target: human D3 receptors expressed in stably transfected HEK 293 cells (Homo sapiens, UniProt P35462); experiment: forskolin-dependent whole cell adenylyl cyclase inhibition assay, D3; assay type: cell-based; details: HEK293, read-out: Intrinsic activity hD3 HEK
Chain of human D3 receptors expressed in stably transfected HEK 293 cells (P35462 whole entry): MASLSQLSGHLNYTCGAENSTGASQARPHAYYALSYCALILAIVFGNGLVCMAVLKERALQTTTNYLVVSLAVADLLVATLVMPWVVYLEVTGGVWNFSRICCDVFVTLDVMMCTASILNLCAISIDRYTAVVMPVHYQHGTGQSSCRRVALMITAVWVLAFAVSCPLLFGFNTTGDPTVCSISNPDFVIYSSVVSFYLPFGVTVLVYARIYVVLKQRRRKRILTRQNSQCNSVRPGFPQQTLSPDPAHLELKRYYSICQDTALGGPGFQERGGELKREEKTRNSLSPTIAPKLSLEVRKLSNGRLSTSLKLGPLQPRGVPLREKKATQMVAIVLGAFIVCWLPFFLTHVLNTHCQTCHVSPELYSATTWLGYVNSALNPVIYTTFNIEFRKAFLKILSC

Chain of human D2 receptors expressed in stably transfected HEK 293 cells (P14416 whole entry): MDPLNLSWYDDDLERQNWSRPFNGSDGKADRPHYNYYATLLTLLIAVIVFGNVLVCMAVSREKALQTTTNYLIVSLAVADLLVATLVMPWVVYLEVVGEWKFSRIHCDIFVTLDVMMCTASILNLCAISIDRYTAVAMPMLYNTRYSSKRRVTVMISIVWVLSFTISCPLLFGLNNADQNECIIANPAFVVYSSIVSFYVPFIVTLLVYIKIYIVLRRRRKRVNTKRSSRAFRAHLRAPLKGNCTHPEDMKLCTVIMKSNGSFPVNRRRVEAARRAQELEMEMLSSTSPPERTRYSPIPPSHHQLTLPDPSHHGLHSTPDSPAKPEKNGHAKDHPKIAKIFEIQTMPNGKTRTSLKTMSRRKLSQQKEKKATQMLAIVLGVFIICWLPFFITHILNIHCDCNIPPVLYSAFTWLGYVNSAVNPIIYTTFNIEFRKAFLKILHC

Q: Which Emax [1] does the source give for `COc1ccccc1N1CCN(CCCCNC(=O)c2ccc(CCF)cc2)CC1` [WC 44] here?
A: 35.3 ± 1%

Q: Which Emax [1] does the source give for `COc1ccccc1N1CCN(CCCCNC(=O)c2ccc(N(C)C)cc2)CC1` [WC 10, 4-(Dimethylamino)-N-[4-(4-(2-methoxyphenyl)piperazin-1-yl)butyl]benzamide] here?
A: 33.5 ± 3.1%

Q: And the Emax [2]?
A: 18.7 ± 2.2%
